Values of other authors, collected in patent US10001483B2, “Methods for the treatment of Kaposi's sarcoma or KSHV-induced lymphoma using immunomodulatory compounds, and uses of biomarkers” (Celgene Corporation, priority 2015, dated 2018).
Where two headings read alike, the source gives them in different places.

Conditions: patients, cited from earlier work

## O=C1CCC(N2C(=O)c3ccccc3C2=O)C(=O)N1 (stereo not shown) [thalidomide, 2-(2,6-dioxopiperidin-3-yl)-1H-isoindole-1,3(2H)-dione]
Approved dose 200 mg
  Cmax: 1760 ng/mL
  Plasma Serum Concentration: 7 µM

## Nc1cccc2c1CN(C1CCC(=O)NC1=O)C2=O (stereo not shown) [lenalidomide, 3-(4-amino-1-oxo 1,3-dihydro-2H-isoindol-2-yl) piperidine-2,6-dione]
Approved dose 25 mg
  Cmax: 451 ng/mL
  Plasma Serum Concentration: 2 µM
